Consider 24 molecules from US11254663B2 (BRISTOL-MYERS SQUIBB COMPANY, priority 2019, dated 2022).

The assay has as its target FXR (Homo sapiens (Human), UniProt Q96RI1). The assay can be described thus: FXR EC50 (FXR agonist potency reported with each Example). Type of assay: cell-based.

SMILES strings stand for the structures. pEC50: −log10 of the molar value.

Chain of FXR (Q96RI1 262-486): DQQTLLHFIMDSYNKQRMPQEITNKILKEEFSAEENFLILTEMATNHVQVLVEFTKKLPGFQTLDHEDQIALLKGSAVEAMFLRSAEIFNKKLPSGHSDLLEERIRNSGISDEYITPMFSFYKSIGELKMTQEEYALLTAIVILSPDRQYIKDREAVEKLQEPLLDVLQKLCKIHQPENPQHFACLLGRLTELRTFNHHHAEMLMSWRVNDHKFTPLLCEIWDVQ

As for `CC(N(C(=O)C12CC(F)(C1)C2)c1cccc(-c2cnc(C3CC3)o2)c1)C12CCC(c3nc(C4CC4)no3)(CC1)CC2` (single isomer, unassigned) [Example 215, N-(1-(4-(3-cyclopropyl-1,2,4-oxadiazol-5-yl)bicyclo[2.2.2]octan-1-yl)ethyl)-N-(3-(2-cyclopropyloxazol-5-yl)phenyl)-3-fluorobicyclo[1.1.1]pentane-1-carboxamide], the pEC50 is 6.57.

The molecule `Cn1nc(-c2cccc(N(CC34CCC(c5nc(C6CC6)no5)(CC3)CC4)C(=O)C3CC(F)(F)C3)c2)cc1C1CC1` [Example 76, N-((4-(3-cyclopropyl-1,2,4-oxadiazol-5-yl)bicyclo[2.2.2]octan-1-yl)methyl)-N-(3-(5-cyclopropyl-1-methyl-1H-pyrazol-3-yl)phenyl)-3,3-difluorocyclobutane-1-carboxamide] showed a negative logarithm of the EC50 (pEC50) of 6.21. This pEC50 is 0.36 log units lower than that of the molecule before.

For `COCc1nc(-c2cccc(N(CC34CCC(c5nc(C6CC6)no5)(CC3)CC4)C(=O)C34CC(F)(C3)C4)c2)cs1` [Example 72, N-((4-(3-cyclopropyl-1,2,4-oxadiazol-5-yl)bicyclo[2.2.2]octan-1-yl)methyl)-3-fluoro-N-(3-(2-(methoxymethyl)thiazol-4-yl)phenyl)bicyclo[1.1.1]pentane-1-carboxamide], the pEC50 was 6.78. The result for `O=C(C1CC(O)(C(F)(F)F)C1)N(CC12CCC(c3nc(C4CC4)no3)(CC1)CC2)c1cccc(-c2cnc(C3CC3)o2)c1` [Example 21, (1S,3S)—N-((4-(3-cyclopropyl-1,2,4-oxadiazol-5-yl)bicyclo[2.2.2]octan-1-yl)methyl)-N-(3-(2-cyclopropyloxazol-5-yl)phenyl)-3-hydroxy-3-(trifluoromethyl)cyclobutane-1-carboxamide] reads 7.10; that for `O=C(N(CC12CCC(c3nc(C4CC4)no3)(CC1)OC2)c1cccc(-c2nc(C3CC3)no2)c1)C12CC(F)(C1)C2` [Example 196, N-((1-(3-cyclopropyl-1,2,4-oxadiazol-5-yl)-2-oxabicyclo[2.2.2]octan-4-yl)methyl)-N-(3-(3-cyclopropyl-1,2,4-oxadiazol-5-yl)phenyl)-3-fluorobicyclo[1.1.1]pentane-1-carboxamide], 6.69; that for `Cn1nc(C2CC2)cc1C12CCC(CN(C(=O)C34CC(F)(C3)C4)c3cncc(-c4nc(C5CC5)no4)c3)(CC1)CC2` [Example 205, N-(5-(3-cyclopropyl-1,2,4-oxadiazol-5-yl)pyridin-3-yl)-N-((4-(3-cyclopropyl-1-methyl-1H-pyrazol-5-yl)bicyclo[2.2.2]octan-1-yl)methyl)-3-fluorobicyclo[1.1.1]pentane-1-carboxamide], 6.66.

`O=C(C1CC(F)(F)C1)N(CC12CCC(c3nnc(C4CC4)o3)(CC1)CC2)c1cccc(-c2nc(C3CC3)no2)c1` [Example 138, N-(3-(3-cyclopropyl-1,2,4-oxadiazol-5-yl)phenyl)-N-((4-(5-cyclopropyl-1,3,4-oxadiazol-2-yl)bicyclo[2.2.2]octan-1-yl)methyl)-3,3-difluorocyclobutane-1-carboxamide] showed a pEC50 of 6.80. The result for `CC(C)(C)CNC(=O)N(CC12CCC(c3nc(C4CC4)no3)(CC1)CC2)c1cccc(-c2nc(C3CC3)no2)c1` [Example 92, 1-((4-(3-cyclopropyl-1,2,4-oxadiazol-5-yl)bicyclo[2.2.2]octan-1-yl)methyl)-1-(3-(3-cyclopropyl-1,2,4-oxadiazol-5-yl)phenyl)-3-neopentylurea] reads 6.38. `CCOc1cc(-c2cccc(N(CC34CCC(c5nc(C6CC6)no5)(CC3)CC4)C(=O)C34CC(F)(C3)C4)c2)no1` [Example 25, N-((4-(3-cyclopropyl-1,2,4-oxadiazol-5-yl)bicyclo[2.2.2]octan-1-yl)methyl)-N-(3-(5-ethoxyisoxazol-3-yl)phenyl)-3-fluorobicyclo[1.1.1]pentane-1-carboxamide] had a pEC50 of 7.06. This pEC50 is 0.68 log units higher than that of the molecule before. As for `Cc1csc(-c2cccc(N(CC34CCC(c5nc(C6CC6)no5)(CC3)CC4)C(=O)C34CC(F)(C3)C4)c2)n1` [Example 151, N-((4-(3-cyclopropyl-1,2,4-oxadiazol-5-yl)bicyclo[2.2.2]octan-1-yl)methyl)-3-fluoro-N-(3-(4-methylthiazol-2-yl)phenyl)bicyclo[1.1.1]pentane-1-carboxamide], the pEC50 is 7.10. This pEC50 and that of the molecule before are within 0.2 log units of each other.

Molecule `Cc1cnc(C23CCC(CN(C(=O)C45CC(F)(C4)C5)c4cccc(-c5nc(C6CC6)no5)c4)(CC2)CC3)o1` [Example 37, N-(3-(3-cyclopropyl-1,2,4-oxadiazol-5-yl)phenyl)-3-fluoro-N-((4-(5-methyloxazol-2-yl)bicyclo[2.2.2]octan-1-yl)methyl)bicyclo[1.1.1]pentane-1-carboxamide] had a pEC50 of 7.09.

`COc1cccc(-c2cccc(N(CC34CCC(c5nc(C)no5)(CC3)CC4)C(=O)C3CC(F)(F)C3)c2)c1` [Example 220, 3,3-Difluoro-N-(3′-methoxy-[1,1′-biphenyl]-3-yl)-N-((4-(3-methyl-1,2,4-oxadiazol-5-yl)bicyclo[2.2.2]octan-1-yl)methyl)cyclobutane-1-carboxamide] had a pEC50 of 6.26. This pEC50 is 0.83 log units lower than that of the molecule before.

For the molecule `O=C(C1CC(F)(F)C1)N(CC12CCC(c3nc(C4CC4)no3)(CC1)CC2)c1cccc(-c2cc(C3CC3)on2)c1` [Example 60, N-((4-(3-cyclopropyl-1,2,4-oxadiazol-5-yl)bicyclo[2.2.2]octan-1-yl)methyl)-N-(3-(5-cyclopropylisoxazol-3-yl)phenyl)-3,3-difluorocyclobutane-1-carboxamide], the pEC50 is 6.64. Turning to `Cn1nc(-c2cccc(N(CC34CCC(c5nc(C6CC6)no5)(CC3)CC4)C(=O)C34CC(F)(C3)C4)c2)cc1C1CC1` [Example 75, N-((4-(3-cyclopropyl-1,2,4-oxadiazol-5-yl)bicyclo[2.2.2]octan-1-yl)methyl)-N-(3-(5-cyclopropyl-1-methyl-1H-pyrazol-3-yl)phenyl)-3-fluorobicyclo[1.1.1]pentane-1-carboxamide], the negative logarithm of the EC50 (pEC50) is 6.61. The result for `CCOc1ncc(-c2cccc(N(CC34CCC(c5ccc(C(C)(C)C#N)cc5)(CC3)OC4)C(=O)C34CC(F)(C3)C4)c2)o1` [Example 51, N-((1-(4-(2-cyanopropan-2-yl)phenyl)-2-oxabicyclo[2.2.2]octan-4-yl)methyl)-N-(3-(2-ethoxyoxazol-5-yl)phenyl)-3-fluorobicyclo[1.1.1]pentane-1-carboxamide] reads 7.60; that for `N#CC1(c2ccc(C34CCC(CN(C(=O)C5CC(F)(F)C5)c5cccc(-c6nc(C7CC7)no6)c5)(CC3)CO4)cc2)CC1` [Example 145, N-((1-(4-(1-cyanocyclopropyl)phenyl)-2-oxabicyclo[2.2.2]octan-4-yl)methyl)-N-(3-(3-cyclopropyl-1,2,4-oxadiazol-5-yl)phenyl)-3,3-difluorocyclobutane-1-carboxamide], 5.36; that for `CCc1noc(-c2cccc(N(CC34CCC(c5nc(C6CC6)no5)(CC3)CC4)C(=O)C34CC(F)(C3)C4)c2)n1` [Example 6, N-((4-(3-cyclopropyl-1,2,4-oxadiazol-5-yl)bicyclo[2.2.2]octan-1-yl)methyl)-N-(3-(3-ethyl-1,2,4-oxadiazol-5-yl)phenyl)-3-fluorobicyclo[1.1.1]pentane-1-carboxamide], 6.87.

`Cn1nc(-c2cccc(N(CC34CCC(c5nc(C6CC6)no5)(CC3)CC4)C(=O)C3CC(C(F)F)C3)c2)cc1C1CC1` (stereo not drawn) [Example 78, N-((4-(3-cyclopropyl-1,2,4-oxadiazol-5-yl)bicyclo[2.2.2]octan-1-yl)methyl)-N-(3-(5-cyclopropyl-1-methyl-1H-pyrazol-3-yl)phenyl)-3-(difluoromethyl)cyclobutane-1-carboxamide]: the pEC50 was 6.22. For `CCOc1cc(-c2cccc(N(CC34CCC(c5nc(C6CC6)no5)(CC3)CC4)C(=O)C34CC(F)(C3)C4)c2)ccn1` [Example 226, N-((4-(3-cyclopropyl-1,2,4-oxadiazol-5-yl)bicyclo[2.2.2]octan-1-yl)methyl)-N-(3-(2-ethoxypyridin-4-yl)phenyl)-3-fluorobicyclo[1.1.1]pentane-1-carboxamide] the value was 6.66. The result for `O=C(C1CCC(F)(F)C1)N(CC12CCC(c3nc(C4CC4)no3)(CC1)CC2)c1cccc(-c2cc(C3CC3)on2)c1` (stereo not drawn) [Example 59, N-((4-(3-cyclopropyl-1,2,4-oxadiazol-5-yl)bicyclo[2.2.2]octan-1-yl)methyl)-N-(3-(5-cyclopropylisoxazol-3-yl)phenyl)-3,3-difluorocyclopentane-1-carboxamide] reads 7.15; that for `Cn1cc(-c2cccc(N(CC34CCC(c5nc(C6CC6)no5)(CC3)CC4)C(=O)C34CC(F)(C3)C4)c2)nc1C1CC1` [Example 130, N-((4-(3-cyclopropyl-1,2,4-oxadiazol-5-yl)bicyclo[2.2.2]octan-1-yl)methyl)-N-(3-(2-cyclopropyl-1-methyl-1H-imidazol-4-yl)phenyl)-3-fluorobicyclo[1.1.1]pentane-1-carboxamide], 6.23; that for `CS(=O)(=O)n1cc(-c2cccc(N(CC34CCC(c5nc(C6CC6)no5)(CC3)CC4)C(=O)C34CC(F)(C3)C4)c2)cn1` [Example 159, N-((4-(3-cyclopropyl-1,2,4-oxadiazol-5-yl)bicyclo[2.2.2]octan-1-yl)methyl)-3-fluoro-N-(3-(1-(methylsulfonyl)-1H-pyrazol-4-yl)phenyl)bicyclo[1.1.1]pentane-1-carboxamide], 7.14. The result for `CC1(c2nc(-c3cccc(N(CC45CCC(c6noc(C(F)F)n6)(CC4)CC5)C(=O)C45CC(F)(C4)C5)c3)no2)CC1` [Example 178, N-((4-(5-(difluoromethyl)-1,2,4-oxadiazol-3-yl)bicyclo[2.2.2]octan-1-yl)methyl)-3-fluoro-N-(3-(5-(1-methylcyclopropyl)-1,2,4-oxadiazol-3-yl)phenyl)bicyclo[1.1.1]pentane-1-carboxamide] reads 7.14; that for `CCNC(=O)N(CC12CCC(c3nc(C4CC4)no3)(CC1)CC2)c1cccc(-c2nc(C3CC3)no2)c1` [Example 95, 1-((4-(3-cyclopropyl-1,2,4-oxadiazol-5-yl)bicyclo[2.2.2]octan-1-yl)methyl)-1-(3-(3-cyclopropyl-1,2,4-oxadiazol-5-yl)phenyl)-3-ethylurea], 6.23.
